Converted amounts (≈) assume the structure as drawn. Like-named read-outs stand apart in the source and are kept apart here. Blank lines part the entries; values can stand above or below the compound they belong to.
Columns and labels:
[1] = tested on: K. pneumonia; assay: Agar diffusion method, inhibition zone diameter; type: cell-based, Klebsiella pneumonia; conditions: Gram-negative
Text: (§1) The bacterial growth inhibition activity of most of the newly synthesized compounds was examined against different Gram-positive and Gram-negative strains. The Agar diffusion method was used to assess the antibacterial and antifungal activity. The Gram-negative strains were: E. coli, K. pneumonia, P. aeruginosa and A. baumannii, the Gram-positive strains were: St. aureus, St. mutans and the standard antibiotics were gentamicin, tigecycline and ampicillin.
(§2) The agar-based media plate surface was inoculated by spreading a volume of the microbial inoculum over the entire agar surface.
(§3) Using a sterile cork borer or a tip, a hole with a diameter of 6 to 8 mm was made.
(§4) Using a micropipette, (20 µL) volume of the antimicrobial agent or extract solution at the desired concentration was introduced into the well.
(§5) The inoculated plates were incubated under suitable conditions depending upon the tested microorganism. The antimicrobial agent diffused through the agar medium and inhibited the growth of the microbial strain tested.
(§6) After a suitable incubation period (16 to 48 hours) according to the optimum growth conditions, the resulting inhibition zone diameters (in mm) around the wells were measured to the nearest whole millimeter at the point at which there is a prominent reduction in growth. If growth is insufficient at the recommended times, the plates should be re-incubated and read later.

[2] = tested on: E. coli; assay: Agar diffusion method, inhibition zone diameter; type: cell-based, Escherichia coli; conditions: Gram-negative
Text: as §1, §2, §3, §4, §5, §6

[3] = tested on: E. coli; assay: Minimum inhibition concentration, serial dilution; type: cell-based, Escherichia coli; conditions: Escherichia coli, 37 °C
Method: (§7) For each strain, three to five isolated colonies were selected from the fresh agar plate and transferred into a tube containing 3-4 ml of the sterile broth medium. The bacterial suspension was mixed well and incubated at 35-37 °C for 2-6 hours. […] After that, 1 mg of the tested compound (antimicrobial agent) was dissolved in 1 ml of DMSO and a two-fold serial dilution was done using a broth medium. A fixed volume of the prepared bacterial inoculum was added to each tube and incubated at 37 °C for 16-20 hours. The MIC is defined as the lowest concentration of the antimicrobial agent that inhibits visible growth of the tested isolate as observed with the unaided eye.

[4] = tested on: A. baumannii; assay: Minimum inhibition concentration, serial dilution; type: cell-based, Acinetobacter baumannii; conditions: Acinetobacter baumannii, 37 °C
Method: as §7

[5] = tested on: St. aureus; assay: Minimum inhibition concentration, serial dilution; type: cell-based; conditions: Staphylococcus aureus, 37 °C
Method: as §7

[6] = tested on: St. mutans; assay: Minimum inhibition concentration, serial dilution; type: cell-based; conditions: Streptococcus mutans, 37 °C
Method: as §7

[7] = tested on: St. aureus; assay: Agar diffusion method, inhibition zone diameter; type: cell-based, Staphylococcus aureus; conditions: Gram-positive
Text: as §1, §2, §3, §4, §5, §6

[8] = tested on: K. pneumonia; assay: Minimum inhibition concentration, serial dilution; type: cell-based, Klebsiella pneumonia; conditions: Klebsiella pneumoniae, 37 °C
Method: as §7

[9] = tested on: any bacterial strain; assay: Agar diffusion method, stated for all strains together; type: cell-based; conditions: in words
Text: as §1, §2, §3, §4, §5, §6

[10] = tested on: all tested Gram-negative and Gram-positive strains; assay: Minimum inhibition concentration, stated for all tested strains together; type: cell-based
Method: as §7

[11] = tested on: P. aeruginosa; assay: Agar diffusion method, inhibition zone diameter; type: cell-based, Pseudomonas aeruginosa; conditions: Gram-negative
Text: as §1, §2, §3, §4, §5, §6

[12] = target: dihydrofolate reductase in Escherichia coli (Escherichia coli, UniProt P0ABQ4); assay: In vitro DHFR inhibition assessment; type: biochemical; conditions: for inhibitory activity against DHFR relative to trimethoprim: fold of trimethoprim, in words
[13] = tested on: St. mutans; assay: Agar diffusion method, inhibition zone diameter; type: cell-based; conditions: Gram-positive
Text: as §1, §2, §3, §4, §5, §6

[14] = tested on: P. aeruginosa; assay: Minimum inhibition concentration, serial dilution; type: cell-based, Pseudomonas aeruginosa; conditions: Pseudomonas aeruginosa, 37 °C
Method: as §7

[15] = tested on: A. baumannii; assay: Agar diffusion method, inhibition zone diameter; type: cell-based, Acinetobacter baumannii; conditions: Gram-negative
Text: as §1, §2, §3, §4, §5, §6

[16] = tested on: DHFR; set-up: method as in PMID 28789907; conditions: read-out: IC50 DHFR inhibition; cited from earlier work
[17] = tested on: DHFR; set-up: method as in doi:10.1007/s00706-017-2032-7; conditions: read-out: IC50 against DHFR activity; cited from earlier work
[18] = tested on: St. aureus, B. subtilis, K. pneumonia and E. coli; set-up: method as in doi:10.1007/s12039-020-01844-8; conditions: as printed in Fig. 2; cited from earlier work
[19] = tested on: E. coli and P. aeruginosa; set-up: method as in earlier work; conditions: cited from earlier work

Sequence of dihydrofolate reductase in Escherichia coli (P0ABQ4 whole entry, the tested form may be a part): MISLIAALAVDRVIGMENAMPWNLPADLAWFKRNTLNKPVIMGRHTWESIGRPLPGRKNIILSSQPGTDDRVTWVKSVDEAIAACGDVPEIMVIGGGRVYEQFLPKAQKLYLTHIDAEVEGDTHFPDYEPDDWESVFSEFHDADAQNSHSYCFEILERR

MIC [3]: 0.25 µg/mL (≈ 0.932 µM)
MIC [4]: 0.125 µg/mL (≈ 0.466 µM)
MIC [5]: 0.25 µg/mL (≈ 0.932 µM)
MIC [6]: 0.0625 µg/mL (≈ 0.233 µM)
MIC [8]: 0.125 µg/mL (≈ 0.466 µM)
SMILES: O=C(Cc1nc2ccccc2s1)Nc1ccccc1 [2a, 2-(Benzo[d]thiazol-2-yl)-N-phenylacetamide]
IZD K. pneumonia [1]: 34 ± 0.8 mm
IZD E. coli [2]: 34 ± 0.5 mm
IZD St. aureus [7]: 31 ± 1 mm

SMILES: Cc1ccc(NC(=O)Cc2nc3ccccc3s2)cc1 [2b, 2-(Benzo[d]thiazol-2-yl)-N-(p-tolyl)acetamide]
antibacterial activity against any bacterial strain [9]: no activity

SMILES: O=C(Cc1nc2ccccc2s1)Nc1ccc(Cl)cc1 [2c, 2-(Benzo[d]thiazol-2-yl)-N-(4-chlorophenyl)acetamide]
MIC [10]: 0.0312 µg/mL (≈ 0.103 µM)
IZD K. pneumonia [1]: 35 ± 1 mm
IZD P. aeruginosa [11]: 36 ± 1 mm
IC50 [12]: 3.8 ± 0.198 µM
inhibitory activity against DHFR relative to trimethoprim [12]: about two-fold
IZD E. coli [2]: 35 ± 1 mm
MIC [3]: 0.0312 µg/mL (≈ 0.103 µM)
MIC [4]: 0.0312 µg/mL (≈ 0.103 µM)
MIC [5]: 0.0312 µg/mL (≈ 0.103 µM)
MIC [6]: 0.0312 µg/mL (≈ 0.103 µM)
IZD St. mutans [13]: 25 ± 1 mm
IZD St. aureus [7]: 28 ± 1 mm
MIC [14]: 0.0312 µg/mL (≈ 0.103 µM)
MIC [8]: 0.0312 µg/mL (≈ 0.103 µM)
IZD A. baumannii [15]: 35 ± 1 mm

SMILES: O=C(Nc1ccccc1)C(=Cc1ccc(OC(=O)c2ccccc2)cc1)c1nc2ccccc2s1 [4m, 4-(2-(Benzo[d]thiazol-2-yl)-3-oxo-3-(phenylamino)prop-1-en-1-yl)phenylbenzoate]
MIC [10]: 0.0312 µg/mL (≈ 0.0656 µM)
IZD K. pneumonia [1]: 35 ± 1.1 mm
IZD P. aeruginosa [11]: 30 ± 1 mm
IC50 [12]: 2.44 ± 0.128 µM
inhibitory activity against DHFR relative to trimethoprim [12]: about four-fold
IZD E. coli [2]: 35 ± 1.1 mm
MIC [3]: 0.0312 µg/mL (≈ 0.0656 µM)
MIC [4]: 0.0312 µg/mL (≈ 0.0656 µM)
MIC [5]: 0.0312 µg/mL (≈ 0.0656 µM)
MIC [6]: 0.0312 µg/mL (≈ 0.0656 µM)
IZD St. mutans [13]: 28 ± 1.1 mm
IZD St. aureus [7]: 25 ± 1.1 mm
MIC [14]: 0.0312 µg/mL (≈ 0.0656 µM)
MIC [8]: 0.0312 µg/mL (≈ 0.0656 µM)
IZD A. baumannii [15]: 35 ± 1.1 mm

SMILES: Cc1ccc(NC(=O)C(=Cc2ccc(OC(=O)c3ccccc3)cc2)c2nc3ccccc3s2)cc1 [4n, 4-(2-(Benzo[d]thiazol-2-yl)-3-oxo-3-(p-tolylamino)prop-1-en-1-yl)phenylbenzoate]
antibacterial activity against any bacterial strain [9]: no antibacterial activity

MIC [5]: 0.0625 µg/mL (≈ 0.179 µM)
MIC [6]: 0.0625 µg/mL (≈ 0.179 µM)
SMILES: CC1(C)S[C@@H]2[C@H](NC(=O)[C@H](N)c3ccccc3)C(=O)N2[C@H]1C(=O)O [Ampicillin, reference compound]
IZD St. mutans [13]: 22 ± 0.1 mm
IZD St. aureus [7]: 29 ± 0.2 mm

SMILES: Clc1ccc(/C=N/c2nc3ccccc3s2)cc1 [II]
IC50 [16]: 0.0312 µM

SMILES: Nc1nc(N)c(-c2nc3ccccc3s2)c(CCCOC(=O)CCl)n1 [IV]
IC50 [17]: 1.3 µM

SMILES: O=[N+]([O-])c1cccc(/C=N/c2nc3ccccc3s2)c1 [I]
IC50 [16]: 0.0415 µM

SMILES: O=C1CSC(c2cccc(Cl)c2Cl)N1c1nc2cc(OC(F)(F)F)ccc2s1 (stereo not shown) [VII]
MIC [18]: 100 to 250 µg/mL

SMILES: CC(=O)Nc1cc(-c2nc3ccccc3s2)ccc1OCC(=O)N/N=C/c1ccc(O)cc1 [V]
MIC [19]: 0.2 µg/mL (≈ 0.434 µM)
